Measurements as given in the OligoGym collection.
These antisense oligonucleotides have a phosphorothioate backbone; sugars and methylation of C are not fully specified.

Conditions: ASO
Further: test concentration or dose not given here.

| Sequence | remaining target (mRNA or protein) (fraction of control) |
| --- | --- |
| CCCCACGCTGCCCTCGGA | 0.8 |
| TGTTAAGACACTGAAGAAAT | ≥ 1 |
| TCCTTGCCTGAAACACCC | ≥ 1 |
| AAAGCCATAGCCAGTTGC | ≥ 1 |
| GTTGATCTCGTCCAGGTA | 0.28 |
| GTCCCAGAACCCTGCCCA | ≥ 1 |
| ATTGGTCTCTCGTCTTTC | ≥ 1 |
| ATCCGCAGGTTGGTTTTC | ≥ 1 |
| CTTTCAAAGGAGGGAAAC | ≥ 1 |
| TCAGCATCCTGCTTAGGG | ≥ 1 |
| ATTTCACTGTAAACGGCT | 0.81 |
| TTACGCTCTGACTTCTGG | 0.81 |
| GGAAACTGAGTCAAGCAA | 0.62 |
| CTCGATCGCTCCTCGTGC | ≥ 1 |
| TCTCCTCCAGGCACTGGT | 0.18 |
| AAGTCCAAGACAGAATCTGT | 0.46 |
| GGAGTGCATAAGAGGCCACA | 0.56 |
| CCCCTCCACAAAAGTGCC | 0.78 |
| ATCAGACTGGAGAGGAGC | 0.73 |
| GTCCAGGTAGCGGGCGAG | ≥ 1 |
| CCTCCACAGCCACTGCAT | 0.97 |
| AAGACAATGTGGAATCGG | ≥ 1 |
| AGGTGACACGCCCGGAGA | ≥ 1 |
| TTGCCCAACCACTCGTTC | 0.45 |

| Sequence | remaining target (mRNA or protein) (fraction of control) |
| --- | --- |
| CTCCAGGATGTCGGTTTT | 0.77 |
| TTTCTCATTGCCTTCACG | ≥ 1 |
| GTCCCCCGACTCCCTTGC | 0.27 |
| CCTTCAGCAAAACAAAAC | 0.76 |
| CTCCGGCGCGCACGGGAACC | 0.55 |
| ACAGATCCAGTGGCTTGT | ≥ 1 |
| CACCGATGCAGAGGTCGC | 0.87 |
| AATTCTGCCAGGTTGCTG | ≥ 1 |
| CTTTGTTTCGGTTGCTGC | 0.64 |
| GGCTGCTGAGAATCTGAA | 0.78 |
| CAAAACCTAAATCCCTGG | ≥ 1 |
| GATGACGGATGTGCTTTT | 0.74 |
| AGAAAAGGAAATCCCAAA | ≥ 1 |
| GCAGAGCCGGCTGAAGTG | 0.96 |
| CTTCTTGCTGCCCTCGGG | ≥ 1 |
| ATCTTCTTCTCTTTCCTT | ≥ 1 |
| GTGTAGTGGCTGAAAAGG | ≥ 1 |
| AAGGTTAAGATGCAGCAT | 0.55 |
| GGGCCCAAAAGCAGCAGC | 0.89 |
| GCTCCCATCCTCGTCGCC | ≥ 1 |
| TGCATAAGAGGCCACAGCAG | 0.44 |
| CCCTAGTCCACAGGTTCC | ≥ 1 |
| GGCGAAGCTGATGCGGAC | ≥ 1 |
| CCACCACTACAGAGCAGG | ≥ 1 |

| Sequence | remaining target (mRNA or protein) (fraction of control) |
| --- | --- |
| GTCCAGCCACTGCAGTGGCC | 0.82 |
| TTCTCCTGTCCACTAGAG | 0.98 |
| AAGGTGCTCTTCCCGCTC | 0.29 |
| AGTGCATAAGAGGCCACAGC | 0.56 |
| GTCCCTGCACCCCTAGTC | ≥ 1 |
| ATCCTTTGTATTTCTTTC | 0.85 |
| GGCTGCGGAGCACGTCCT | 0.54 |
| CCTGTTTACTGCTCTCCC | 0.8 |
| CTCGTAACAAACTGGTCGAA | 0.83 |
| AAAGCCGTGGTGAACTGACT | 0.84 |
| CCAGGCTAAACCAGGCTG | 0.43 |
| ATTCAGCATTTTGTAAGG | 0.99 |
| ATTTCCTGGGATGTGCGG | 0.48 |
| CCACTCCCACCTCCCACC | ≥ 1 |
| CCAAAGAGCTGCTGGGAA | ≥ 1 |
| TGATTTCTTCACCTTTTC | ≥ 1 |
| CTACAGGTTGGCCACTCTGG | 0.33 |
| CGCCCGGCGGCTCTTTCT | ≥ 1 |
| CCGCCAGAAAGACCCCAC | ≥ 1 |
| CGTGTTGATAGTTGCAGTTC | ≥ 1 |
| GATGCGCTCCAGGTGGGA | 0.58 |
| TATTATCGAGTGACTGGT | ≥ 1 |
| AACTGAAATAACAACTTA | 0.94 |
| TGGAGAGATAGACCAGGA | 0.67 |

| Sequence | remaining target (mRNA or protein) (fraction of control) |
| --- | --- |
| TGTGGGCCGAGGCTGGAG | 0.85 |
| ATCGTGCGCCCTTCTTGC | ≥ 1 |
| ACCAGCCCCGAGCGTTTG | 0.74 |
| TTTCTGCACGGAGAAGCA | 0.26 |
| GCTCCAGCAGCAGCAGCC | 0.94 |
| GGCAAGGCTTGAGTGCTG | 0.42 |
| CCTCCGCCCTCTCTTGCC | 0.8 |
| TCGGCGGTGGCAAGGCTT | 0.97 |
| TGTCCTGGTGAGAGGCAG | 0.73 |
| GATGAACCTCTTGGCTGC | ≥ 1 |
| AGGGAGGCTGCCTTTTCC | 0.63 |
| TGCTTGTGGGCCGCGATT | 0.24 |
| TGTCTGGGTCCACCGTGC | 0.45 |
| CGCACAGCCCTTCACGGCAA | 0.32 |
| AGGAGGCAGTACTGGAGTCT | 0.7 |
| CCATCTATGAGCACACTTCG | 0.33 |
| CCTTGAAGACCTTGCGGA | 0.14 |
| CCTTCAAAAGTTGTGCGG | ≥ 1 |
| TTCTGGCACTTTCTATGA | 0.72 |
| TCAACTTCTTTTGCCGAA | 0.62 |
| ACTGCCTTCTCTGCCCACTT | 0.41 |
| TGCACCAGTGGCTCGGCT | ≥ 1 |
| CGCATGGACACGAAGATG | ≥ 1 |
| CAGGTAGATGAGGGCGAT | 0.74 |

| Sequence | remaining target (mRNA or protein) (fraction of control) |
| --- | --- |
| GTTCATTCCATTCAGTTG | 0.87 |
| CCATGGTGCGGTGGCCTC | 0.94 |
| CACCCTGGCATCCCAAAT | 0.13 |
| GCTTCCTGTCCATCACTG | 0.71 |
| TTCGCCGCACCGACTCGC | 0.9 |
| GTCTTCAGTGTTTTCATT | ≥ 1 |
| AGTAGGTTTTGGTGGTTT | ≥ 1 |
| AACGTGGTCACTTTATAG | 0.73 |
| TCACAGCAGGTTGATCTC | ≥ 1 |
| AGCTCCCTTCTTACTCCC | 0.69 |
| GTAAGTCCAGGAGATAGC | 0.86 |
| CGCCCGCCGGTGCCGCCT | 0.47 |
| GGTGGTGGAGTGCATAAGAG | 0.98 |
| CTGCTTCTTCTGCTCCAA | 0.57 |
| TAAGAGGCCACAGCAGGCTC | 0.42 |
| AGGGAATAAATACAAAAG | ≥ 1 |
| GCATCTGCTTGATGAAGG | ≥ 1 |
| AATCTTTAATTTCAGCCC | ≥ 1 |
| ACGTAGCCCTCCTCGGTG | ≥ 1 |
| GCGCGTCCGGTGCTCCCA | 0.75 |
| TTCAAGTCTTCTTCCAAT | 0.85 |
| GCTTGAGTGCTGGGAACA | ≥ 1 |
| AGGCTGCTGGAAAGAGTCAG | 0.53 |
| CGTCGGGCTCCTTGCTGA | ≥ 1 |

| Sequence | remaining target (mRNA or protein) (fraction of control) |
| --- | --- |
| GAGAGATGCCCACCCACC | ≥ 1 |
| CTATGGAAATGCAGCTTAAG | 0.87 |
| CCCGCACGTCCTTGAAGA | 0.27 |
| CCCGGGCAGCTGAGAGCCCT | 0.72 |
| GGCTCAGAAGGACTTCCTGG | 0.65 |
| TTCTCCTCCAGGCACTGG | ≥ 1 |
| CCTAGCAGTCTCTTCACTGC | 0.74 |
| CCGCTCTTGGGTCTGGCA | 0.29 |
| GATGGGGGTGGTGGAGTGCA | 0.75 |
| GATCTTGCAGACGGTAGCTG | 0.3 |
| TTCTCATCCTCCGTCAGG | ≥ 1 |
| GGGGTGGTGGAGTGCATAAG | 0.9 |
| CACTCTCGGGCAGCCAGC | 0.91 |
| CTCATAGCAGGCCCGGAT | 0.44 |
| GTTCCAGGATAGTCCCAA | 0.34 |
| ATCCCCTGATTTCTTCAC | 0.53 |
| ACAGTGTTTTCCGCGGT | 0.53 |
| AGCGCCACACGCGACAGTAA | 0.56 |
| GCTGTGTCTCTGGGCATC | ≥ 1 |
| AGCCAAATGGGAACTCACAG | 0.74 |
